Laboratory results published in patent US20220251124A1, “3,5-BIS(PHENYL)-1H-HETEROARYL DERIVATIVES AS MEDICAMENTS” (INSTITUTE OF BIOTECHNOLOGY CAS, V.V.I., priority 2019, published 2022).
Like-named read-outs stand apart in the source and are kept apart here.

Legend:
Assay type in all cases: cell-based
MDA-MB-231 cells = experiment: crystal violet assay, cellular viability, 48 hrs; conditions: for IC50: MDA-MB-231, crystal violet
Procedure: (§1) Compound 1 and a comparative compound deferasirox (DFX) were tested in their efficacy to kill/suppress proliferation of malignant breast cancer MCF7 cells representing estrogen-dependent type of breast cancer. Briefly, 10.000 cells per well were seeded in a 96-well plate on one day and the next day the tested compounds were added and incubated with the cells for 48 hrs. The cells were then fixed with 4% paraformaldehyde, stained with 0.05% crystal violet, washed with PBS, and solubilized in 1% SDS. The absorbance of the plate at 595 nm was then measured, quantifying the number of viable cells.
Compound 1 and the comparative compound deferasirox were tested in their efficacy to kill/suppress proliferation of malignant MDA-MB-231 cancer cells representing hard to treat triple negative breast cancer. The procedure is identical to that in example 12.

MCF7 cells = experiment: crystal violet assay, cellular viability (cytostatic and cytotoxic effect), 48 hrs; conditions: Homo sapiens
Procedure: as §1

[1] = test system: tamoxifen resistant T47D (Tam5R); experiment: crystal violet assay, tamoxifen resistant cells; conditions: Homo sapiens, T47D Tam5R grown in the presence of 5 μM tamoxifen
Procedure: as §1
(§2) To test whether compound 1 is active against resistant cancer cells, we used tamoxifen-resistant MCF7, T47D. The IC50 values were again measured with the crystal violet assay performed as in example 12. We have documented that there is a significant difference in the ability of compound 1 to induce cytostatic and cytotoxic effects between the parental cells sensitive to tamoxifen and the resistant ones that grow even in the presence of tamoxifen (Table 11), yet the IC50 values are still in the nM range, making this compound very efficient.

[2] = test system: tamoxifen resistant MCF7 (Tam5R); experiment: crystal violet assay, tamoxifen resistant cells; conditions: MCF7 Tam5R grown in the presence of 5 μM tamoxifen
Procedure: as §1, §2

[3] = test system: non-malignant fibroblasts (HFP1); experiment: crystal violet assay, cellular viability, 48 hrs; conditions: Fibroblast
Procedure: [The source words this procedure for another cell line and reports this cell line under the same test.] as §1
(§3) Compounds 1, 2 and the comparative compound deferasirox were tested in their efficacy to suppress proliferation/kill several malignant cell lines of breast, pancreatic and ovarian origin (MCF7, MDA-MB-231, BxPC3 and OVCAR3). The procedure is identical to that in example 12.

T47D = experiment: crystal violet assay, cellular viability, 48 hrs; conditions: Homo sapiens, T47D (parental/control)
Procedure: [The source words this procedure for another cell line and reports this cell line under the same test.] as §1, §3

BxPC3 = experiment: crystal violet assay, cellular viability, 48 hrs; conditions: Homo sapiens, BXPC-3
Procedure: as §1, §3

OVCAR3 = experiment: crystal violet assay, cellular viability, 48 hrs; conditions: Homo sapiens, OVCAR-3
Procedure: as §1, §3

UPF1H leukemia cell line [4] = experiment: alamarBlue Cell Viability Reagent, 48 hrs
Procedure: (§4) Compound 1 and a comparative compound deferasirox (DFX) were tested in their efficacy to kill/suppress proliferation of several leukemia cells. Briefly, 10.000 cells per well were seeded in a 96-well plate on one day and the next day the tested compounds were added and incubated with the cells for 48 hrs. Cellular viability was determined as the ability to reduce the probe alamarBlue™ Cell Viability Reagent.

UPF9T leukemia cell line [5] = experiment: alamarBlue Cell Viability Reagent, 48 hrs
Procedure: as §4

[6] = test system: UPF16A leukemia cell line; experiment: alamarBlue Cell Viability Reagent, 48 hrs
Procedure: as §4

UPF4D leukemia cell line [7] = experiment: alamarBlue Cell Viability Reagent, 48 hrs
Procedure: as §4

leukemia cells = experiment: alamarBlue viability, leukemia cells overall
Procedure: as §4

UPF1H leukemia cell line [8] = experiment: AnnexinV/PI assay, cell death induction, 48 hrs
Procedure: (§5) This effect seems to be based mainly on the cytostatic effect of compound 1. To define the ability to kill cells, cell death-inducing potency (cytotoxic efficacy) of DFX and compound 1 have been tested via annexin V/PI staining commonly used as a measure of apoptotic/necrotic cell death. Briefly, cells were seeded in 12-well plate at 100,000 per well, incubated with the selected compounds for 48 hours, then floating cells were spun, adherent cells trypsinized and spun as well followed by the staining with AnnexinV-FITC and PI probes. Cells were then washed with PBS and measured via Fluorescence Activated Sorter.
(§6) This effect seems to be based mainly on the cytostatic effect of compound 1. To define the ability to kill cells, cell death-inducing potency (cytotoxic efficacy) of DFX and compound 1 have been tested via annexin V/PI staining commonly used as a measure of apoptotic/necrotic cell death (see example 15). […] Compound 1 killed cancer cells with effects higher by almost 3 orders of magnitude than those of deferasirox. Such results are unprecedented and very unexpected.

UPF9T leukemia cell line [9] = experiment: AnnexinV/PI assay, cell death induction, 48 hrs
Procedure: as §5, §6

[10] = test system: UPF16A leukemia cell line; experiment: AnnexinV/PI assay, cell death induction, 48 hrs
Procedure: as §5, §6

UPF4D leukemia cell line [11] = experiment: AnnexinV/PI assay, cell death induction, 48 hrs
Procedure: as §5, §6

SMILES: O=C(NCCCCCCCCCC[P+](c1ccccc1)(c1ccccc1)c1ccccc1)c1ccc(-n2nc(-c3ccccc3O)nc2-c2ccccc2O)cc1 [Compound 1, (10-(4-(3,5-bis(2-hydroxyphenyl)-1H-1,2,4-triazol-1-yl)benzamido)decyl) triphenylphosphonium Chloride]
- viability at 0.03 µM (MDA-MB-231 cells; Homo sapiens, 0.030 μM, MDA-MB-231, read-out: viable cells compared to non-treated controls): 71.1%
- viability at 0.1 µM (MDA-MB-231 cells; Homo sapiens, 0.100 μM, MDA-MB-231, read-out: viable cells compared to non-treated controls): 52.5%
- viability at 0.3 µM (MDA-MB-231 cells; Homo sapiens, 0.300 μM, MDA-MB-231, read-out: viable cells compared to non-treated controls): 37.4%
- viability at 1 µM (MDA-MB-231 cells; Homo sapiens, 1 μM, MDA-MB-231, read-out: viable cells compared to non-treated controls): 27.8%
- viability at 3 µM (MDA-MB-231 cells; Homo sapiens, 3 μM, MDA-MB-231, read-out: viable cells compared to non-treated controls): 18.2%
- viability at 10 µM (MDA-MB-231 cells; Homo sapiens, 10 μM, MDA-MB-231, read-out: viable cells compared to non-treated controls): 0.29%
- viability at 30 µM (MDA-MB-231 cells; Homo sapiens, 30 μM, MDA-MB-231, read-out: viable cells compared to non-treated controls): 0.51%
- IC50 (MDA-MB-231 cells; Homo sapiens, MDA-MB-231, 48 h): 131 nM
- IC50 (MDA-MB-231 cells; Homo sapiens, MDA-MB-231, 48 h, text): 131 nM
- IC50 (MDA-MB-231 cells): 130 nM
- viability at 0.03 µM (MCF7 cells; 0.030 μM, MCF7, read-out: viable cells compared to non-treated controls): 33.7%
- viability at 0.1 µM (MCF7 cells; 0.100 μM, MCF7, read-out: viable cells compared to non-treated controls): 23.6%
- viability at 0.3 µM (MCF7 cells; 0.300 μM, MCF7, read-out: viable cells compared to non-treated controls): 14.8%
- viability at 1 µM (MCF7 cells; 1 μM, MCF7, read-out: viable cells compared to non-treated controls): 7.28%
- viability at 3 µM (MCF7 cells; 3 μM, MCF7, read-out: viable cells compared to non-treated controls): 5.2%
- viability at 10 µM (MCF7 cells; 10 μM, MCF7, read-out: viable cells compared to non-treated controls): 2.31%
- viability at 30 µM (MCF7 cells; 30 μM, MCF7, read-out: viable cells compared to non-treated controls): 0.69%
- IC50 (MCF7 cells; MCF7 (parental/control), crystal violet, read-out: IC50): 8 nM
- IC50 (MCF7 cells; MCF7, crystal violet, read-out: IC50 (suppression of proliferation to 50%)): 8 nM
- IC50 [1]: 112 nM
- IC50 [2]: 38 nM
- IC50 [3]: 532 nM
- IC50 (T47D): 31 nM
- IC50 (BxPC3): 150 nM
- IC50 (OVCAR3): 154 nM
- viability at 0.03 µM (UPF1H leukemia cell line [4]; 0.030 μM, 48 hrs, read-out: viable cells compared to non-treated controls): 94.1%
- viability at 0.1 µM (UPF1H leukemia cell line [4]; 0.100 μM, 48 hrs, read-out: viable cells compared to non-treated controls): 81.9%
- viability at 0.3 µM (UPF1H leukemia cell line [4]; 0.300 μM, 48 hrs, read-out: viable cells compared to non-treated controls): 31.1%
- viability at 3 µM (UPF1H leukemia cell line [4]; 3 μM, 48 hrs, read-out: viable cells compared to non-treated controls): 5.8%
- viability at 10 µM (UPF1H leukemia cell line [4]; 10 μM, 48 hrs, read-out: viable cells compared to non-treated controls): 0.04%
- IC50 (UPF1H leukemia cell line [4]; 48 h): 230 nM
- viability at 0.03 µM (UPF9T leukemia cell line [5]; 0.030 μM, 48 hrs, UPF9T, read-out: viable cells compared to non-treated controls): 44.8%
- viability at 0.1 µM (UPF9T leukemia cell line [5]; 0.100 μM, 48 hrs, UPF9T, read-out: viable cells compared to non-treated controls): 10.5%
- viability at 0.3 µM (UPF9T leukemia cell line [5]; 0.300 μM, 48 hrs, UPF9T, read-out: viable cells compared to non-treated controls): 2%
- viability at 3 µM (UPF9T leukemia cell line [5]; 3 μM, 48 hrs, UPF9T, read-out: viable cells compared to non-treated controls): 6.7%
- viability at 10 µM (UPF9T leukemia cell line [5]; 10 μM, 48 hrs, UPF9T, read-out: viable cells compared to non-treated controls): 6.9%
- IC50 (UPF9T leukemia cell line [5]; 48 h): 20 nM
- viability at 0.03 µM ([6]; 0.030 μM, 48 hrs, UPF16A, read-out: viable cells compared to non-treated controls): 75.7%
- viability at 0.1 µM ([6]; 0.100 μM, 48 hrs, UPF16A, read-out: viable cells compared to non-treated controls): 50.2%
- viability at 0.3 µM ([6]; 0.300 μM, 48 hrs, UPF16A, read-out: viable cells compared to non-treated controls): 30.8%
- viability at 3 µM ([6]; 3 μM, 48 hrs, UPF16A, read-out: viable cells compared to non-treated controls): 4%
- viability at 10 µM ([6]; 10 μM, 48 hrs, UPF16A, read-out: viable cells compared to non-treated controls): 0.31%
- IC50 ([6]; 48 h): 110 nM
- viability at 0.03 µM (UPF4D leukemia cell line [7]; 0.030 μM, 48 hrs, UPF4D, read-out: viable cells compared to non-treated controls): 90.1%
- viability at 0.1 µM (UPF4D leukemia cell line [7]; 0.100 μM, 48 hrs, UPF4D, read-out: viable cells compared to non-treated controls): 49.8%
- viability at 0.3 µM (UPF4D leukemia cell line [7]; 0.300 μM, 48 hrs, UPF4D, read-out: viable cells compared to non-treated controls): 0.56%
- viability at 3 µM (UPF4D leukemia cell line [7]; 3 μM, 48 hrs, UPF4D, read-out: viable cells compared to non-treated controls): 0.74%
- viability at 10 µM (UPF4D leukemia cell line [7]; 10 μM, 48 hrs, UPF4D, read-out: viable cells compared to non-treated controls): 0.1%
- IC50 (UPF4D leukemia cell line [7]; 48 h): 90 nM
- IC50 (leukemia cells; 48 h, read-out: IC50 (suppression of proliferation to 50%)): 20 to 200 nM
- same effect at a concentration lower than deferasirox (leukemia cells; IC50 versus deferasirox, leukemia cells): 40-4000 fold
- efficacy against leukemia cell lines (leukemia cells; as seen in previous tables): 20 to 200 nM
- dead cells (AnnexinV/PI) (UPF1H leukemia cell line [8]; 0.1 μM): 85.3 (10.9) %
- dead cells (AnnexinV/PI) (UPF1H leukemia cell line [8]; 1 μM): 98.3 (0.6) %
- dead cells (AnnexinV/PI) (UPF9T leukemia cell line [9]; 0.1 μM): 88.2 (4.8) %
- dead cells (AnnexinV/PI) (UPF9T leukemia cell line [9]; 1 μM): 99.0 (0.6) %
- dead cells (AnnexinV/PI) ([10]; 0.1 μM): 45.4 (16.2) %
- dead cells (AnnexinV/PI) ([10]; 1 μM): 71.8 (20.2) %
- dead cells (AnnexinV/PI) (UPF4D leukemia cell line [11]; 0.1 μM): 87.3 (13.4) %
- dead cells (AnnexinV/PI) (UPF4D leukemia cell line [11]; 1 μM): 96.7 (3.9) %
